Data reported in patent US9340510B2, “Tetrahydroisoquinoline derivatives, pharmaceutical compositions and uses thereof” (Boehringer Ingelheim International GmbH, priority 2014, dated 2016).

target: human ACC2 (Homo sapiens (Human), UniProt O00763); experiment: ACC2 assay: spectrophotometric 384 well assay (coupled lactate dehydrogenase/pyruvate kinase); type: biochemical; details: hACC2 construct lacking the 128 N-terminal amino acids, 25° C., 340 nm
Procedure: Spectrophotometric 384 Well Assay
Malonyl CoA formation by acetyl CoA carboxylases is stoichiometrically linked to the consumption of ATP. ACC2 activity is measured in a […] kinetic method measuring ADP generated during the ACC reaction using a coupled lactate dehydrogenase/pyruvate kinase reaction.
For biological testing, a human ACC2 construct which lacks the 128 amino acids at the N-terminus for increased solubility (nt 385-6966 in Genbank entry AJ575592) is cloned. The protein is then expressed in insect cells using a baculoviral expression system. Protein purification is performed by anion exchange.
All compounds are dissolved in dimethyl sulfoxide (DMSO) to a concentration of 10 mM.
Assay reactions are then carried out in 384-well plates, with hACC2 in an appropriate dilution and at final assay concentrations (f.c.) of 100 mM Tris (pH 7.5), 10 mM trisodium citrate, 25 mM KHCO3, 10 mM MgCl2, 0.5 mg/ml BSA, 3.75 mM reduced L-glutathione, 15 U/ml lactate dehydrogenase, 0.5 mM phosphoenolpyruvate, 15 U/ml pyruvate kinase, compounds at different concentrations at final DMSO concentrations of 1%.
The enzymatic reaction is then started by addition of a mixture of NADH, acetyl Coenzyme A (both […].) and ATP (500 uM f.c.). The decrease of the optical density (slope S) is then determined at 25° C. at a wavelength of 340 nm over 15 minutes in a spectrophotometric reader.
Each assay microtiter plate contains wells with vehicle instead of compound as controls for the non-inhibited enzyme (100% CTL; ‘HIGH’) and wells without acetyl-CoA as controls for non-specific NADH degradation (0% CTL; ‘LOW’).
The slope S is used for calculation of % CTL=(S(compound)−S(‘LOW’))/(S(‘HIGH’)−S(‘LOW’))*100. Compounds will give values between 100% CTL (no inhibition) and 0% CTL (complete inhibition).
For IC50 value determination, the sample slope in the presence of the test compound after subtraction of the low controls (S(compound)−S(‘LOW’)) are used.
An IC50 value is derived from the compound slopes at different dosages after subtraction of the low controls (S(compound)-S(‘LOW’)) by non-linear regression curve fitting (equation y=(A+((B−A)/(1+((C/x)^D))))).

Chain of human ACC2 (O00763 129-2458): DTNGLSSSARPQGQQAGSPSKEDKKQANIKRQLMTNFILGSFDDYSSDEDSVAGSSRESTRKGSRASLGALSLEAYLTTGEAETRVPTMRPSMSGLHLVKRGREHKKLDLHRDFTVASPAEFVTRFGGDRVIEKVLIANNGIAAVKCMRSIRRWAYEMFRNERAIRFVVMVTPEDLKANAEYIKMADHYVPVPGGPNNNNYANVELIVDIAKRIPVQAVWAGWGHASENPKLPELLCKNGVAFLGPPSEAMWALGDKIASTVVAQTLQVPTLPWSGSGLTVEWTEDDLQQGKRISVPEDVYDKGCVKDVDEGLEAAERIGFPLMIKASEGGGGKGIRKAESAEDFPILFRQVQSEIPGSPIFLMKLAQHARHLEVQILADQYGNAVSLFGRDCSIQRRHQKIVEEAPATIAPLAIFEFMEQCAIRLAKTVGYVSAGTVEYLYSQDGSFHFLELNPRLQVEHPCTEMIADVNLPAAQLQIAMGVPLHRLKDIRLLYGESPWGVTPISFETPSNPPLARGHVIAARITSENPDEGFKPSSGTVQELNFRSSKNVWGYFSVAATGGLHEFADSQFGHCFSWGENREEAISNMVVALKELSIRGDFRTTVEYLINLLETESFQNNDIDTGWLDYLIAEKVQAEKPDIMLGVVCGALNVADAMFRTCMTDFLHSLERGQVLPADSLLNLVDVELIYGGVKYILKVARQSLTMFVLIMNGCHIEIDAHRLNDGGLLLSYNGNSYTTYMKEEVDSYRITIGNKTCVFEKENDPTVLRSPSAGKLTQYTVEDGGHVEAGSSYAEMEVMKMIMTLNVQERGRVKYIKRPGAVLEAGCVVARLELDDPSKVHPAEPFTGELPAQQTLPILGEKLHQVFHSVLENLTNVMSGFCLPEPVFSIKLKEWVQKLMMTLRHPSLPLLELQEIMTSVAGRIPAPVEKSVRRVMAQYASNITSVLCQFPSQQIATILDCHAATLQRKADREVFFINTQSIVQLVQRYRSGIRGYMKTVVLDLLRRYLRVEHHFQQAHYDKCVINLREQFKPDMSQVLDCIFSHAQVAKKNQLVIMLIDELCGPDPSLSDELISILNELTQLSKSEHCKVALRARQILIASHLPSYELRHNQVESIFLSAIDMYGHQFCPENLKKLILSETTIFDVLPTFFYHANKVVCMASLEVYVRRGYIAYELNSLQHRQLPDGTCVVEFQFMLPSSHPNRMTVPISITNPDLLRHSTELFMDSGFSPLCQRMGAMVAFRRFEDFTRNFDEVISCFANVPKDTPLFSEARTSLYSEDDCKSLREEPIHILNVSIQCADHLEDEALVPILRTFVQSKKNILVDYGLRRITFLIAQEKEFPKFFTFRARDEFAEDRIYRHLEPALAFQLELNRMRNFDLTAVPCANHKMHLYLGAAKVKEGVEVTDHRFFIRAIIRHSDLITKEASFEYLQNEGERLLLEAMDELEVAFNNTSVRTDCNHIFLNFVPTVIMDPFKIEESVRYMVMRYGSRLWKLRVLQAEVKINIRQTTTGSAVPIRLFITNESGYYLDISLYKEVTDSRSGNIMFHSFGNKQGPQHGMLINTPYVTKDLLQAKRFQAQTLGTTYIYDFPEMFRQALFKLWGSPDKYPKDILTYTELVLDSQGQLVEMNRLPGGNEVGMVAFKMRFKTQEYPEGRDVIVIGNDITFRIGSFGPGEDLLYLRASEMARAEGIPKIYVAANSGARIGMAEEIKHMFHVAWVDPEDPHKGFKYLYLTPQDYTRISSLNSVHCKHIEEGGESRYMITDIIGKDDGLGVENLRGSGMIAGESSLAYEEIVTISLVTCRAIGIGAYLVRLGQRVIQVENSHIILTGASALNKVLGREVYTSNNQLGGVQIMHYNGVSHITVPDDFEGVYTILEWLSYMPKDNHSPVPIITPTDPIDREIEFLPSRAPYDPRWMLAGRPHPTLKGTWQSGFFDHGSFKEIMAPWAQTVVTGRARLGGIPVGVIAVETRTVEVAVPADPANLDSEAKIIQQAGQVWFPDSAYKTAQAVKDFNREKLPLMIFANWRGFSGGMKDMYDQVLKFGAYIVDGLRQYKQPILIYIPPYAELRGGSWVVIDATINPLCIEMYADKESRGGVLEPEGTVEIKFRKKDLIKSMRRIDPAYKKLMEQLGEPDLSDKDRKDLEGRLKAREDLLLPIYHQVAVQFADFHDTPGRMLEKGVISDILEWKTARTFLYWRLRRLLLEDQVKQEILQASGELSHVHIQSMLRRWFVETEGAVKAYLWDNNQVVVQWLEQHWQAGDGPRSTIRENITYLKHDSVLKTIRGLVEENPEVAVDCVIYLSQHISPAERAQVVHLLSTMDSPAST

Row | Compound | IC50 [nM]
1 | C[C@H](NC(=O)C1(N)CC1)c1ccc(CN2Cc3ccc(OCC4CC4)cc3C(F)C2)cc1 (some centres unmarked) [Example 3.055] | 55
2 | C[C@H](NC(=O)Cc1cncnc1)c1ccc(CN2CCc3cc(OCC4CC4)ccc3C2)cc1 [Example 2.022] | 82
3 | C[C@H](NC(=O)CO)c1ccc(CN2CC(=O)c3cc(OCC4CC4)ccc3C2)cc1 [Example 2.041] | 600
4 | C[C@H](NC(=O)C1CC1)c1ccc(CN2CCc3c(ccc(OCC4CC4)c3Cl)C2)cc1 [Example 1.050] | 120
5 | C[C@H](NC(=O)C1CCC(=O)N1)c1ccc(CN2Cc3ccc(OCC4CC4)cc3C(F)C2)cc1 (some centres unmarked) [Example 3.035] | 143
6 | C[C@H](NC(=O)Cc1cnccn1)c1ccc(CN2Cc3ccc(OCC4CC4)cc3C(F)C2)cc1 (some centres unmarked) [Example 3.037] | 60
7 | C[C@H](NC(=O)c1cncs1)c1ccc(CN2CCc3cc(OCC4CC4(F)F)ccc3C2)cc1 (some centres unmarked) [Example 3.019] | 28
8 | CC(=O)NC(C)c1ccc(CN2CCc3c(ccc(OC4CCC4)c3Cl)C2)cc1 (centres unmarked) [Example 1.037] | 80
9 | CC(=O)N[C@@H](C)c1ccc(CN2CC(=O)c3cc(OCc4ccccc4)ccc3C2)cc1 [Example 1.089] | 89
10 | CCC(=O)N[C@@H](C)c1ccc(CN2CCc3c(Br)cccc3C2)cc1 [Example 2.011] | 194
11 | COc1cccc2c1CCN(Cc1ccc([C@H](C)NC(C)=O)cc1)C2 [Example 7.001, N-{(S)-1-[4-(5-Methoxy-3,4-dihydro-1H-isoquinolin-2-ylmethyl)-phenyl]-ethyl}-acetamide] | 192
12 | CC(=O)Nc1nc(C)c(C(=O)N[C@@H](C)c2ccc(CN3CCc4cc(OCC5CC5)ccc4C3)cc2)s1 [Example 2.032] | 34
13 | CC(=O)N[C@@H](C)c1ccc(CN2CCc3cc(Cl)ccc3C2)cc1 [Example 1.081] | 232
14 | CC(=O)N[C@@H](C)c1ccc(CN2CCc3c(ccc(OCC4(C(F)(F)F)CC4)c3Cl)C2)cc1 [Example 1.062] | 55
15 | C[C@H](NC(=O)CO)c1ccc(CN2Cc3ccc(OCC4CC4)cc3C(F)C2)cc1 (some centres unmarked) [Example 3.059] | 47
16 | COc1c(OCCC2CC2)ccc2c1CCN(Cc1ccc([C@H](C)NC(=O)C3CC3)cc1)C2 [Example 1.058] | 137
17 | CC(=O)NC(C)c1ccc(CN2CCc3c(ccc(OCCC4CC4)c3Cl)C2)cc1 (centres unmarked) [Example 1.035] | 61
18 | CC(=O)N[C@@H](C)c1ccc(CN2CCc3c(ccc(Cl)c3Cl)C2)cc1 [Example 1.078] | 67
19 | COc1c(OCC2CC2)ccc2c1CCN(Cc1ccc(C(C)NC(C)=O)cc1)C2 (centres unmarked) [Example 1.023] | 133
20 | C[C@H](NC(=O)CC#N)c1ccc(CN2CCc3cc(OCC4CC4(F)F)ccc3C2)cc1 (stereo partly drawn) [Example 3.001, 2-Cyano-N—((S)-1-{4-[6-(2,2-difluoro-cyclopropylmethoxy)-3,4-dihydro-1H-isoquinolin-2-ylmethyl]-phenyl}-ethyl)-acetamide] | 35

Row | Compound | IC50 [nM]
21 | CC(=O)N[C@@H](C)c1ccc(CN2CCc3cc(OCCC(F)F)ccc3C2)cc1 [Example 1.063] | 45
22 | CC(=O)NC(C)c1ccc(CN2CCc3c(ccc(OCCC(F)(F)F)c3Cl)C2)cc1 (centres unmarked) [Example 1.034] | 54
23 | CC(=O)NC(C)c1ccc(CN2CCc3c(ccc(OCC4CC4(F)F)c3Cl)C2)cc1 (centres unmarked) [Example 1.025] | 49
24 | C[C@H](NC(=O)CO)c1ccc(CN2CCc3cc(OC[C@@H]4CC4(F)F)ccc3C2)cc1 [Example 2.025] | 89
25 | COC1CN(Cc2ccc([C@H](C)NC(C)=O)cc2)Cc2ccc(OCC3CC3)cc21 (some centres unmarked) [Example 1.094] | 296
26 | C[C@H](NC(=O)c1cn[nH]c1)c1ccc(CN2Cc3ccc(OCC4CC4)cc3C(F)C2)cc1 (some centres unmarked) [Example 3.064] | 52
27 | CC(=O)Nc1nc(C)c(C(=O)N[C@@H](C)c2ccc(CN3Cc4ccc(OCC5CC5)cc4C(F)C3)cc2)o1 (some centres unmarked) [Example 3.036] | 518
28 | COc1c(OCC2CC(F)(F)C2)ccc2c1CCN(Cc1ccc([C@H](C)NC(C)=O)cc1)C2 [Example 1.075] | 55
29 | C[C@H](NC(=O)c1cncs1)c1ccc(CN2CCc3c(cccc3OC3CCC3)C2)cc1 [Example 2.014] | 144
30 | CC(=O)N[C@@H](C)c1ccc(CN2CCc3c(ccc(OC(C)C)c3Br)C2)cc1 [Example 1.079] | 136
31 | CC(=O)N[C@@H](C)c1ccc(CN2Cc3ccc(OCC4CC4)cc3C(O)C2)cc1 (some centres unmarked) [Example 1.096] | 315
32 | C[C@H](NC(=O)C1CC1)c1ccc(CN2CCc3cc(OCC4CC(F)(F)C4)ccc3C2)cc1 [Example 2.015] | 38
33 | C[C@H](NC(=O)C1(C#N)CC1)c1ccc(CN2Cc3ccc(OCC4CC4(F)F)cc3C(F)C2)cc1 (some centres unmarked) [Example 3.028] | 46
34 | CC(C)COc1ccc2c(c1)CCN(Cc1ccc([C@H](C)NC(=O)C3CC3)cc1)C2 [Example 2.019] | 57
35 | CCC(=O)N[C@@H](C)c1ccc(CN2CCc3cc(OCC4CC4(F)F)ccc3C2)cc1 (stereo partly drawn) [Example 4.001, N—((S)-1-{4-[6-(2,2-Difluoro-cyclopropylmethoxy)-3,4-dihydro-1H-isoquinolin-2-ylmethyl]-phenyl}-ethyl)-propionamide] | 37
36 | CC(=O)NC(C)c1ccc(CN2CCc3cc(OC(C)C)ccc3C2)cc1 (centres unmarked) [Example 1.021] | 110
37 | Cc1[nH]ncc1C(=O)N[C@@H](C)c1ccc(CN2CCc3cc(OCC4CC4(F)F)ccc3C2)cc1 (some centres unmarked) [Example 3.012] | 122
38 | C[C@H](NC(=O)CO)c1ccc(CN2CCc3cc(OCC4CC4)ccc3C2)cc1 [Example 2.023] | 82
39 | CCC(=O)Nc1nc(C)c(C(=O)N[C@@H](C)c2ccc(CN3Cc4ccc(OCC5CC5)cc4C(F)C3)cc2)s1 (some centres unmarked) [Example 3.025] | 26
40 | C[C@H](NC(=O)N(C)C)c1ccc(CN2Cc3ccc(OCC4CC4(F)F)cc3C(O)C2)cc1 (some centres unmarked) [Example 6.002] | 173

Row | Compound | IC50 [nM]
41 | C[C@H](NC(=O)c1cnn(C)c1Cl)c1ccc(CN2CCc3cc(OCC4CC4(F)F)ccc3C2)cc1 (some centres unmarked) [Example 3.016] | 162
42 | C[C@H](NC(=O)C1(C#N)CC1)c1ccc(CN2Cc3ccc(OCC4CC4)cc3C(O)C2)cc1 (some centres unmarked) [Example 3.043] | 354
43 | COc1c(OC2CCC2)ccc2c1CCN(Cc1ccc([C@H](C)NC(C)=O)cc1)C2 [Example 1.070] | 145
44 | C[C@H](NC(=O)CC(=O)N(C)C)c1ccc(CN2CCc3cc(OC[C@@H]4CC4(F)F)ccc3C2)cc1 [Example 2.031] | 447
45 | C[C@H](NC(=O)C1CC1)c1ccc(CN2CCc3c(cccc3C(F)(F)F)C2)cc1 [Example 2.007] | 104
46 | CC(=O)Nc1nc(C)c(C(=O)N[C@@H](C)c2ccc(CN3Cc4ccc(OCC5CC5)cc4C(F)C3)cc2)s1 (some centres unmarked) [Example 3.046] | 56
47 | C[C@H](NC(=O)c1cn[nH]c1)c1ccc(CN2CCc3c(cccc3C(F)(F)F)C2)cc1 [Example 2.008] | 100
48 | C[C@H](NC(=O)C1CC1)c1ccc(CN2Cc3ccc(OCC4CC4(F)F)cc3C(O)C2)cc1 (some centres unmarked) [Example 1.061] | 140
49 | C[C@H](NC(=O)c1cn[nH]c1)c1ccc(CN2CCc3cc(OCC4CC4(F)F)ccc3C2)cc1 (some centres unmarked) [Example 3.010] | 25
50 | C[C@H](NC(=O)C1CCC1)c1ccc(CN2Cc3ccc(OCC4CC4)cc3C(F)C2)cc1 (some centres unmarked) [Example 3.042] | 72
51 | C[C@H](NC(=O)CC(N)=O)c1ccc(CN2Cc3ccc(OCC4CC4)cc3C(F)C2)cc1 (some centres unmarked) [Example 3.034] | 115
52 | C[C@H](NC(=O)C1CC(F)(F)C1)c1ccc(CN2CCc3cc(OCC4CC4(F)F)ccc3C2)cc1 (some centres unmarked) [Example 3.021] | 198
53 | C[C@H](NC(=O)C1(C)CC1)c1ccc(CN2CCc3cc(OCC4CC4(F)F)ccc3C2)cc1 (some centres unmarked) [Example 3.015] | 24
54 | CCNC(=O)N[C@@H](C)c1ccc(CN2Cc3ccc(OCC4CC4)cc3C(F)C2)cc1 (some centres unmarked) [Example 5.007] | 49
55 | C[C@H](NC(=O)C1CC1)c1ccc(CN2CCc3cc(OCC4CC4)ccc3C2)cc1 [Example 1.042] | 65
56 | CCC(=O)N[C@@H](C)c1ccc(CN2CC(=O)c3cc(OCC4CC4(F)F)ccc3C2)cc1 (some centres unmarked) [Example 7.007] | 185
57 | C[C@H](NC(=O)C1CC1)c1ccc(CN2Cc3ccc(OCC4CC4)cc3C(O)C2)cc1 (some centres unmarked) [Example 3.038] | 198
58 | CCNC(=O)N[C@@H](C)c1ccc(CN2CCc3cc(OCC4CC4(F)F)ccc3C2)cc1 (stereo partly drawn) [Example 5.001, 1-((S)-1-{4-[6-(2,2-Difluoro-cyclopropylmethoxy)-3,4-dihydro-1H-isoquinolin-2-ylmethyl]-phenyl}-ethyl)-3-ethyl-urea] | 76
59 | C[C@H](NC(=O)C1CC1)c1ccc(CN2CCc3cc(OCCC4CC4)ccc3C2)cc1 [Example 2.018] | 47
